Experimental data from patent US10239836B2, “Benzenecarbothioccyclopenta[c] pyrrole-1,3-dione compounds and process for synthesis thereof” (Council of Scientific & Industrial Research, priority 2014, dated 2019).
Like-named read-outs stand apart in the source and are kept apart here.

Key:
[1] = system: RAW 264.7 cells; test: Cytotoxicity assay (MTT viability); format: cell-based, Mouse
Experimental: (§1) Mouse macrophage cell line RAW 264.7 was maintained in laboratory at 37° C. in
(§2) RPMI-1640 media supplemented with 10% heat-inactivated fetal bovine serum (FBS) and penicillin/streptomycin.
(§3) Viability of cultured cells was determined by (4,5-dimethylthiazol-2-yl)-2,5-diphenyltetrazolium bromide (MTT; Sigma) as described earlier (1). RAW 264.7 was seeded in triplicate at a density of 2×10^4 cells per well on a 96-well plate. […] MTT solution (0.5 mg/ml) was then added to each well and incubate for 4 h at 37° C. At the end of the incubation period, the medium was removed and the resulting purple formazan was solubilized with acidic isopropanol (0.1 N HCl in absolute isopropanol), and the absorbance was read at 570 nm using Biorad Microplate reader (Biorad, USA).

[2] = system: LPS induced NO generation in RAW 264.7 cells; test: Inhibition of LPS induced NO generation (nitrite, Griess reagent); format: cell-based, Mouse; details: for IC50: RAW 264.7 cells, LPS 1 μg/ml, 24 h, serum-free, read-out: NO inhibition (B) IC50; for Selectivity index (A/B): cytotoxicity IC50 / NO inhibition IC50, RAW 264.7 cells
Experimental: as §1, §2
Nitrite, a stable oxidized product of NO, was measured in culture supernatant using Griess reagent (Sigma Aldrich) according to a previously reported method (2). After overnight seeding in 96-well plate (2×10^4 cells/well), RAW 264.7 cell was treated with lipopolysaccharide (LPS; Sigma) at a concentration of 1 μg/ml along with different doses of compounds (as determined from cytotoxicity assay) in serum-free culture for 24 h. Following treatment, media was collected and centrifuged at 2,000 rpm for 5 min to remove cellular debris. 50 μl of this media was then reacted with equal volume of Griess reagent for 15 min at room temperature in dark and absorbance was taken at 540 nm using Microplate reader (Biorad, USA). Nitrite concentrations were determined using standard solutions of sodium nitrite prepared in cell culture medium.

[3] = Cytotoxicity assay (MTT viability); format: cell-based, Mouse; details: mouse; RAW 264.7 cells, MTT, 24 h treatment, serum free
Experimental: as §1, §2, §3

[4] = system: H1N1 virus; details: MDCK cells; Yang et al., Organic Letter 2013; cited from earlier work

Compound `CC(=O)O[C@@H]1CCC2=C1C(=O)NC2=O` [(−)-5, (R)-1,3-dioxo-1,2,3,4,5,6-hexahydrocyclopenta[c]pyrrol-4-yl] has an IC50 [1] of 128 µM and an IC50 [2] of 867 µM.
`O=C(S[C@@]12CC[C@@H](O)[C@@H]1C(=O)NC2=O)c1ccccc1` (relative stereo) [Compound 16, S-((3aS*,6R*,6aR*)-6-Hydroxy-1,3-dioxohexahydrocyclopenta[c]pyrrol-3a(1H)-yl) benzothioate] showed an IC50 at 24 h [3] of 17100 µM, a melting point of 180 to 182 °C and an IC50 ([2]; Mus musculus, RAW264.7) of 65.2 µM. For the same compound, the “Selectivity index (A/B)” value [2] was 261.7025.
Work on `CC(=O)S[C@]12CCC[C@H]1C(=O)NC2=O` (relative stereo) [Compound 18, S-((3aR*,6aS*)-1,3-Dioxohexahydrocyclopenta[c]pyrrol-3a(1H)-yl) ethanethioate] yielded an IC50 at 24 h [3] of 674 µM, a melting point of 120 to 122 °C and an IC50 ([2]; Mus musculus, RAW264.7) of 59.2 µM. For the same compound, the “Selectivity index (A/B)” value [2] was 11.39.
`O=C1NC(=O)C2=C1CCC2SC(=O)c1cccs1` (stereo not drawn) [Compound 29, S-(1,3-Dioxo-1,2,3,4,5,6-hexahydrocyclopenta[c]pyrrol-4-yl) thiophene-2-carbothioate] showed an IC50 at 24 h [3] of 26.7 µM, a melting point of 138 to 139 °C and an IC50 ([2]; Mus musculus, RAW264.7) of 65 µM. For the same compound, the “Selectivity index (A/B)” value [2] was 0.4108.
`O=C(S[C@]12CC[C@@H](O)[C@H]1C(=O)NC2=O)c1ccccc1` (relative stereo) [Compound 15, S-((3aR*,6R*,6aS*)-6-Hydroxy-1,3-dioxohexahydrocyclopenta[c]pyrrol-3a(1H)-yl) benzothioate] showed an IC50 at 24 h [3] of 479 µM, a melting point of 185 to 186 °C and an IC50 ([2]; Mus musculus, RAW264.7) of 72.4 µM. The “Selectivity index (A/B)” value [2] was 6.622.
In the case of `O=C(S[C@@]12CC[C@H](O)[C@@H]1C(=O)NC2=O)c1ccc(O)cc1` [Nitrosporeusine A], the “inhibitory activities against the H1N1 virus” value [4] is listed as “exhibited inhibitory activities”.
With `CC(=O)SC12CCC=C1C(=O)NC2=O` (stereo not drawn) [Compound 26, S-(1,3-Dioxo-2,3,4,5-tetrahydrocyclopenta[c]pyrrol-3a(1H)-yl)ethanethioate] the IC50 at 24 h [3] was 184 µM, the melting point was 170 to 172 °C and the IC50 ([2]; Mus musculus, RAW264.7) was 20.5 µM. The “Selectivity index (A/B)” value [2] was 9.
For `O=C(S[C@@]12CC[C@@H](O)[C@@H]1C(=O)NC2=O)c1ccc(O)cc1` [Nitrosporeusine B], the “inhibitory activities against the H1N1 virus” value [4] is listed as “exhibited inhibitory activities”.
